Source: patent publication US11197893B2, “Pure platelet-rich plasma (P-PRP) composition for treatment of subclinical mastitis and methods of producing and using the same” (Universidad de Caldas, priority 2016, dated 2021)

Legend:
[1] = tested on: Gram-positive major pathogens; assay: Non-inferiority randomized clinical trial: bacteriological cure in cows with subclinical mastitis; assay type: in vivo
Experimental: (§1) A non-inferiority randomized clinical trial was conducted, following methodology described in Schukken et al., “Noninferiority Trial Comparing a First-Generation Cephalosporin With a Third-Generation Cephalosporin in the Treatment of Nonsevere Clinical Mastitis in Dairy Cows,” J. Dairy Sci. 96(10): 6763-74 (2013). […] Ha: [Rcure(cefquinome)−Rcure(P-PRP)]>−Δ [2] where “Rcure”is the cure risk and “Δ” is the non-inferiority margin. Results were interpreted according to the principles for a non-inferiority trial (Piaggio et al., “Reporting of Noninferiority and Equivalence Randomized Trials: Extension of the CONSORT 2010 Statement,” JAMA 308(24): 2594-604 (2012); Schukken et al. (2013)).
The milk samples were streaked onto agar plates containing 5% sheep blood and 0.1% esculin. The agar plates were incubated at 37.5° C. and visually inspected at 24 hours and 48 hours for bacterial growth. Morphology and Gram staining were used for initial identification. A catalase test was used to differentiate staphylococci from streptococci, and a coagulase test was performed on catalase-positive cocci to confirm presence of Staphylococcus aureus. Gram-positive and catalase-negative cocci were differentiated by their reaction to the hydrolysis of esculin under ultraviolet light. The Christie, Atkins, Munch-Petersen (CAMP) test and esculin reaction were used to differentiate Streptococcus agalactiae and Streptococcus dysgalactiae, and esculin reaction and culture in enterococcosel agar (from Becton-Dickinson, Durham, N.C., USA) were used to identify Streptococcus uberis. Their morphology and Gram staining were used to identify Corynebacterium species. Growth in McConckey agar and further biochemical tests, such as citrate, indole, oxidase and motility, were used to identify coliforms. Those cultures that presented more than two bacterial species were considered contaminated and not informative of intramammary infection. […]

[2] = tested on: IFN-γ; assay: Cytokine concentrations in milk of treated cows (ELISA); assay type: in vivo
Experimental: Once cows were treated, composite milk samples from both treated groups were collected at days 21 and 22 after treatment for SCC and microbiological analyses. Procedures for SCC and microbiology were previously described. Treatment was repeated in cows that remained positive for major Gram-positive bacteria, receiving the same product used for the first treatment 4 days after collecting the second milk sample. A final milk sampling was conducted on all refractory cases 21 and 22 days after the repeated treatment. Individual cow SCC, including laboratory data and pre- and post-treatment concentration of cytokines (IL-1, IL-2, IL-4, IL-6, IL-8, IFN-γ, and TNF-α), were generated for each milk sample. No more than two treatment attempts per cow were performed and used in the study.
Proteins were analyzed in hemoderivatives and whole milk using commercial ELISA development kits from R&D Systems (Minneapolis, Minn., USA) with the exception of […]. PDGF-BB (Human PDGF-BB DuoSet, DY220), TGF-β1 (Human TGF-β1 DuoSet, DY240E), and PF4 (Human CXCL4/PF4 Duoset, DY795), which were determined using human antibodies. […]

[3] = Somatic cell count (LnSCC) in milk of treated cows; assay type: in vivo; details: days 21, 22, 47, 48 vs day 0; FIG. 7
Source text: Two individual composite milk samples were aseptically collected from each cow during the first visit to the herd in order to select the cows to be treated for subclinical mastitis. These milk samples were refrigerated and submitted to Universidad de Caldas for analysis, with one of the samples being used for analysis of subclinical mastitis using an automated cell counter (FOSSOMATIC, from Foss, Hillerod, Denmark). The subclinical mastitis results were expressed as the natural log (LnSCC), in thousands/mL to normalize the data distribution. […]
Cure was defined at the cow level. […] Cure risk was statistically assessed for initial treatment (samples taken at days 21 and 22) and treatment of refractory cases samples (samples taken at days 47 and 48), independently. […]
The statistical analyses of LnSCC and the milk concentration of IL-1, IL-2, IL-4, IL-6, IL-8, IFN-γ, and TNF-αresults were done using linear regression. […] The linear regression model used was: y=intercept+treatment+herd+parity+LnSCC+error [4] where y corresponds to LnSCC after treatment on days 21 and 47 for cows treated one or two times, respectively, and the milk concentrations of IL-1, IL-2, IL-4, IL-6, IL-8, IFN-γ, and TNF-α, which were measured only at days 0 and 21. […]

[4] = tested on: Streptococcus agalactiae; assay: Non-inferiority trial: bacteriological cure, Strep. agalactiae infections; assay type: in vivo, cows
Experimental: as §1
(§2) The milk samples were streaked onto agar plates containing 5% sheep blood and 0.1% esculin. The agar plates were incubated at 37.5° C. and visually inspected at 24 hours and 48 hours for bacterial growth. Morphology and Gram staining were used for initial identification. A catalase test was used to differentiate staphylococci from streptococci, and a coagulase test was performed on catalase-positive cocci to confirm presence of Staphylococcus aureus. Gram-positive and catalase-negative cocci were differentiated by their reaction to the hydrolysis of esculin under ultraviolet light. […]

[5] = tested on: Streptococcus uberis; assay: Non-inferiority trial: bacteriological cure, Strep. uberis infections; assay type: in vivo, cows; details: Strep. uberis cases; margin −0.175; 95% CI; FIG. 6
Experimental: as §1, §2

CO/N=C(\C(=O)N[C@@H]1C(=O)N2C(C(=O)[O-])=C(C[n+]3cccc4c3CCCC4)CS[C@H]12)c1csc(N)n1.O=S(=O)(O)O [cefquinome sulphate]
Risk difference for bacteriological cure, non-inferiority interpretation ([1]; all cases, margin −0.175, 95% CI, FIG. 6): better | Overall bacteriological cure, percent of cows ([1]; cows with subclinical mastitis, EG n=54, RG n=49): 71% | Overall bacteriological cure, number of cows ([1]; cows with subclinical mastitis, intramammary infusion, three consecutive milkings, EG n=54, RG n=49): 35 cows | Concentration of IFN-γ in milk, change ([2]; by day 47 in cows treated twice): increased | Concentration of IFN-γ in milk, comparison between groups ([2]; days 0 and 22): higher | Change of mean LnSCC in milk after the start of the trial [3]: no differences | Risk difference for bacteriological cure, non-inferiority interpretation ([4]; Strep. agalactiae cases, margin −0.175, 95% CI, FIG. 6): better, although non-inferiority is inconclusive | Cure risk for Strep. agalactiae ([4]; in vivo): 100% | Risk difference for bacteriological cure, non-inferiority interpretation [5]: better
